The values below are quoted from earlier work in US20130122099A1, “POLYETHYLENE GLYCOL-COATED SODIUM CARBONATE AS A PHARMACEUTICAL EXCIPIENT AND COMPOSITIONS PRODUCED FROM THE SAME” (priority 2008, published 2013).

Details in the first data set: not given
Usually pKa stands for the negative logarithm of the acid dissociation constant. For `O=C1CC2(CCCC2)CC(=O)N1CCCCN1CCN(c2ncccn2)CC1` [Buspirone], the pKa is 7.2.

With `COc1cc(N)c(Cl)cc1C(=O)NC1CCN(CCCOc2ccc(F)cc2)CC1OC` (stereo not shown) [Cisapride], the pKa was 7.83. For `CN1CCN(C(c2ccccc2)c2ccccc2)CC1` [Cyclizine], the pKa was 7.7. Regarding `CCCCOc1cc(C(=O)NCCN(CC)CC)c2ccccc2n1` [Dibucaine], the pKa is 8.5.

As for `CN(C)CCC=C1c2ccccc2COc2ccccc21` [Doxepin], the pKa was 8.2. Take `CNCCC(Oc1ccc(C(F)(F)F)cc1)c1ccccc1` (stereo not shown) [Fluoxetine]: the pKa was 8.7. Regarding `CN1C2CCCC1CC(NC(=O)c1nn(C)c3ccccc13)C2` (stereo not shown) [Granisetron], the pKa was 9.4. With `O=c1[nH]c(=O)n([C@H]2C[C@H](O)[C@@H](CO)O2)cc1I` [Idoxuridine], the pKa is reported as 8.3. For the molecule `CN1CCC(=C2c3ccccc3CC(=O)c3sccc32)CC1` [Ketotifen], the pKa is reported as 8.75. As for `CC(CCc1ccccc1)NCC(O)c1ccc(O)c(C(N)=O)c1` (stereo not shown) [Labetalol], the pKa was 8.7. With `CN1CCCCC1CCN1c2ccccc2Sc2ccc([S+](C)[O-])cc21` (stereo not shown) [Mesoridazine], the pKa is given as 8.2. With `CC(=O)/N=c1/sc(S(N)(=O)=O)nn1C` [Methazolamide], the pKa is 7.3. On to `CN1CCN2c3ccccc3Cc3ccccc3C2C1` (stereo not shown) [Mianserine], for which the pKa is recorded as 8.3. For the molecule `CN1CCN2c3ncccc3Cc3ccccc3C2C1` (stereo not shown) [Mirtazapine], the pKa is listed as 7.7. In the case of `C=CCN1CC[C@]23c4c5ccc(O)c4O[C@H]2C(=O)CC[C@@]3(O)[C@H]1C5` [Naloxone], the pKa is listed as 7.82. On to `OC(CNCC(O)C1CCc2cc(F)ccc2O1)C1CCc2cc(F)ccc2O1` (stereo not shown) [Nebivolol], for which the pKa is recorded as 8.6. On to `COc1ccc2c(c1OC)C(=O)O[C@@H]2[C@H]1c2c(cc3c(c2OC)OCO3)CCN1C` [Noscapine], for which the pKa is on record as 7.8. As to `Cc1nccn1CC1CCc2c(c3ccccc3n2C)C1=O` (stereo not shown) [Ondansetron], the pKa is given as 7.7.

With `CCN(CC)CCCC(C)Nc1cc(OC)cc2cccnc12` (stereo not shown) [Pamaquine], the pKa is given as 8.7. Consider `N#Cc1ccc2c(c1)N(CCCN1CCC(O)CC1)c1ccccc1S2` [Periciazine], for which the pKa was 8.3. For the molecule `OCCN1CCN(CCCN2c3ccccc3Sc3ccc(Cl)cc32)CC1` [Perphenazine], the pKa is reported as 7.94. For `CC[C@@H]1C(=O)OC[C@@H]1Cc1cncn1C` [Pilocarpine], the pKa was 6.6. Consider `Cc1ccc2c(c1)c1c3n2CCNC3CCC1` (stereo not shown) [Pirlindole], for which the pKa is reported as 7.7. With `CN[C@H]1CC[C@@H](c2ccc(Cl)c(Cl)c2)c2ccccc21` [Sertraline], the pKa was 9.4.

On to `Cc1ccnc(NS(=O)(=O)c2ccc(N)cc2)n1` [Sulfamerazine], for which the pKa is listed as 8.0. Take `Cc1cc(C)nc(NS(=O)(=O)c2ccc(N)cc2)n1` [Sulfamethazine]: the pKa is given as 7.4. As for `CCN(CC)C(=O)N[C@H]1C[C@@H]2c3cccc4[nH]cc(c34)C[C@H]2N(C)C1` [Terguride], the pKa is listed as 7.2. As to `CC(C)(C)NC[C@H](O)COc1nsnc1N1CCOCC1` [Timolol], the pKa is listed as 9.2. For the molecule `Clc1ccc2nsnc2c1NC1=NCCN1` [Tizanidine], the pKa is given as 9.0. As for `CC1(C)S[C@@H]2[C@H](NC(=O)[C@H](N)c3ccc(O)cc3)C(=O)N2[C@H]1C(=O)O` [amoxicillin], the pKa was 7.4. With `c1ccc(CN(CC2=NCCN2)c2ccccc2)cc1` [antazoline], the pKa is given as 7.2. Turning to `CN1CCN(C(c2ccccc2)c2ccc(Cl)cc2)CC1` (stereo not shown) [chlorcyclizine], the pKa is 9.65. As for `CN(C)CCOC(=O)C(c1ccccc1)C1(O)CCCC1` (stereo not shown) [cyclopentolate], the pKa is reported as 7.9. `O=C1CN(/N=C/c2ccc(-c3ccc([N+](=O)[O-])cc3)o2)C(O)=N1` [dantrolene]: the pKa is 7.5.

As to `COc1cccc2c1C(=O)c1c(O)c3c(c(O)c1C2=O)C[C@@](O)(C(C)=O)C[C@@H]3O[C@H]1C[C@H](N)[C@H](O)[C@H](C)O1` [daunomycin], the pKa is given as 8.2. On to `CCC1(C)CC(=O)NC1=O` (stereo not shown) [ethosuximide], for which the pKa is listed as 9.3. Take `O=C1NCN(c2ccccc2)C12CCN(CCCC(c1ccc(F)cc1)c1ccc(F)cc1)CC2` [fluspirilene]: the pKa is 7.32. `NS(=O)(=O)c1cc2c(cc1C(F)(F)F)NCNS2(=O)=O` [hydroflumethiazide]: the pKa is 8.9. Take `OCCOCCN1CCN(C(c2ccccc2)c2ccc(Cl)cc2)CC1` (stereo not shown) [hydroxyzine]: the pKa is given as 7.1. For `CCC[C@@H]1C[C@@H](C(=O)N[C@@H]([C@H]2O[C@H](SC)[C@H](O)[C@@H](O)[C@H]2O)[C@@H](C)O)N(C)C1` [lincomycin], the pKa was 7.5. For `CCC1(c2ccccc2)NC(=O)N(C)C1=O` (stereo not shown) [mephenytoin], the pKa is given as 8.33. On to `COc1ccc(CN(CCN(C)C)c2ccccn2)cc1` [mepyramine], for which the pKa is reported as 8.9. In the case of `CCn1cc(C(=O)O)c(=O)c2cc(F)c(N3CCNCC3)cc21` [norfloxacin], the pKa was 8.75. Consider `OC1(c2ccc(Cl)c(C(F)(F)F)c2)CCN(CCCC(c2ccc(F)cc2)c2ccc(F)cc2)CC1` [penfluridol], for which the pKa is listed as 8.0. Regarding `CN1C(=O)CC(c2ccccc2)C1=O` (stereo not shown) [phensuximide], the pKa was 9.2.

The same data set, now with this note: listed as daunorubicin.
Regarding `COc1cccc2c1C(=O)c1c(O)c3c(c(O)c1C2=O)C[C@@](O)(C(C)=O)C[C@@H]3O[C@H]1C[C@H](N)[C@H](O)[C@H](C)O1` [daunomycin], the pKa is 8.25.
